Article PMC6364417, “Kinase inhibitor library screening identifies synergistic drug combinations effective in sensitive and resistant melanoma cells” (Journal of Experimental & Clinical Cancer Research : CR, 2019)
Read-outs that look alike come from different tables or passages of the source.

Legend:
501Mel cells (parental) [1] = assay: Dose-response curves and IC50, PrestoBlue cell viability, 72 h; conditions: read-out: Half-maximal inhibitory concentration (IC50)
A375 cells (parental) [2] = assay: as above; assay type: cell-based, human; conditions: read-out: Half-maximal inhibitory concentration value (IC50), Mean
[3] = tested on: IGR37-GP cells (Dabrafenib-resistant); assay: as above; conditions: read-out: Half-maximal inhibitory concentration (IC50)
[4] = tested on: A375-XP cells (Vemurafenib-resistant); assay: as above; assay type: cell-based, human; conditions: n.e. = did not suppress growth below 50% in the tested concentration range; for IC50: read-out: Half-maximal inhibitory concentration value (IC50), Mean
IGR37 cells (parental) [5] = assay: as above; conditions: read-out: Half-maximal inhibitory concentration (IC50)
Method: (§2) All inhibitors used in this study were purchased from Selleck Chemicals (Houston, USA). They were dissolved in DMSO to a stock concentration of 10 mM according to the manufacturer’s instructions and stored at − 80 °C. […] Cell viability was measured with the PrestoBlue Cell Viability Reagent (ThermoFisher Scientific) on a CLARIOstar Monochromator microplate reader (BMG Labtech). Using the GraphPad Prism v5.04 software, the half-maximal inhibitor concentration values (IC50) were determined from the curve using the nonlinear log (inhibitor) vs response-variable slope (four parameters) equation. […] The IC50’s were determined for 3 biological replicates and are listed with their standard deviations.
(§3) Values represent the mean of at least three biological replicates; one representative curve of at least 3 biological replicates is depicted. _XP: cells resistant to Vemurafenib (red), _GP: cells resistant to Dabrafenib (green).

[6] = tested on: IGR37-XP cells (Vemurafenib-resistant); assay: as above; conditions: read-out: Half-maximal inhibitory concentration (IC50)
Method: as §2, §3

[7] = tested on: 501Mel-XP cells (Vemurafenib-resistant); assay: as above; conditions: read-out: Half-maximal inhibitory concentration (IC50)
[8] = tested on: A375-GP cells (Dabrafenib-resistant); assay: as above; assay type: cell-based, human; conditions: n.e. = did not suppress growth below 50% in the tested concentration range; for IC50: read-out: Half-maximal inhibitory concentration value (IC50), Mean
[9] = tested on: 501Mel-GP cells (Dabrafenib-resistant); assay: as above; conditions: read-out: Half-maximal inhibitory concentration (IC50)
Method: as §2

[10] = tested on: NHDF (normal human dermal fibroblasts); assay: Dose-response curves and IC50 in non-cancer cells, cell viability, 72 h; conditions: fibroblasts (NHDF)
Method: (§1) The IC50 values (nM) were calculated as indicated in Methods.

[11] = tested on: NHEM (normal human epidermal melanocytes); assay: as above; conditions: melanocytes (NHEM)
Method: as §1

[12] = tested on: IGR37-GP cells (Dabrafenib-resistant); assay: Kinase inhibitor library screening, PrestoBlue cell viability, 1 or 10 μM, 72 h; conditions: IGR37 GP, 72 h
[13] = tested on: IGR37-XP cells (Vemurafenib-resistant); assay: as above; conditions: IGR37 XP, 72 h
IGR37 cells (parental) [14] = assay: as above; conditions: IGR37 Parental, 72 h
[15] = tested on: 501Mel-XP cells (Vemurafenib-resistant); assay: as above; conditions: 501Mel XP, 72 h
[16] = tested on: 501Mel-GP cells (Dabrafenib-resistant); assay: as above; conditions: 501Mel GP, 72 h
A375 cells (parental) [17] = assay: as above; conditions: A375 Parental, 72 h
[18] = tested on: A375-GP cells (Dabrafenib-resistant); assay: as above; conditions: A375 GP, 72 h
501Mel cells (parental) [19] = assay: as above; conditions: 501Mel Parental, 72 h
Procedure, shortened: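 Readout: PrestoBlue signal on a monochromator plate reader, given as percent viability relative to untreated controls. Parental and drug-resistant (Vemurafenib XP, Dabrafenib GP) sublines were tested; at least duplicates per line.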

[20] = tested on: A375-XP cells (Vemurafenib-resistant); assay: as above; conditions: A375 XP, 72 h
[21] = Homo sapiens, A-375, n.e. = did not suppress growth below 50% in the tested concentration range

Molecule `Nc1cc(C(F)(F)F)c(-c2cc(N3CCOCC3)nc(N3CCOCC3)n2)cn1` [BKM120] has an IC50 (501Mel cells (parental) [1]; 501Mel parental, 72 h cell viability) of 1160 nM, an IC50 (A375 cells (parental) [2]; n.e. = did not suppress growth below 50% in the tested concentration range) of 951 nM and an IC50 ([3]; IGR37-GP (Dabrafenib-resistant), 72 h cell viability) of 1520 nM. It also gave an IC50 [4] of 1000 nM, an IC50 (IGR37 cells (parental) [5]; IGR37 parental, 72 h cell viability) of 916 nM and an IC50 ([6]; IGR37-XP (Vemurafenib-resistant), 72 h cell viability) of 1160 nM. For the same molecule, the IC50 ([7]; 501Mel-XP (Vemurafenib-resistant), 72 h cell viability) was 818 nM, the IC50 [8] was 788 nM and the IC50 ([9]; 501Mel-GP (Dabrafenib-resistant), 72 h cell viability) was 919 nM.

`C[C@@H](Oc1cc(-c2cnn(C3CCNCC3)c2)cnc1N)c1c(Cl)ccc(F)c1Cl` [Crizotinib] gave an IC50 (501Mel cells (parental) [1]; Homo sapiens, 72 h) of 6520 nM, an IC50 (A375 cells (parental) [2]; [21]) of 5550 nM and an IC50 ([3]; Homo sapiens, 72 h) of 6740 nM. The IC50 ([4]; Homo sapiens) was 5140 nM, the IC50 (IGR37 cells (parental) [5]; Homo sapiens, IGR-37, 72 h) was 6890 nM and the IC50 ([6]; Homo sapiens, 72 h) was 5940 nM. The IC50 ([7]; Homo sapiens, 72 h) was 1350 nM, the IC50 ([8]; Homo sapiens) was 5100 nM and the IC50 ([9]; Homo sapiens, 72 h) was 3280 nM.

In the case of `CC(C)(C)c1nc(-c2cccc(NS(=O)(=O)c3c(F)cccc3F)c2F)c(-c2ccnc(N)n2)s1` [Dabrafenib], the IC50 (A375 cells (parental) [2]; [21]) is reported as 1.9 nM, the “Half-maximal inhibitory concentration value (IC50), Mean” value [4] is reported as “n.e” and the “effect on healthy cells, cell viability (in words)” value [10] is reported as “did not have any effect”. The “effect on healthy cells, cell viability (in words)” value [11] was “did not have any effect” and the “Half-maximal inhibitory concentration value (IC50), Mean” value [8] was “n.e”.

Molecule `CCc1cnn2c(NCc3ccc[n+]([O-])c3)cc(N3CCCC[C@H]3CCO)nc12` [Dinaciclib] has an IC50 (501Mel cells (parental) [1]; Homo sapiens, 72 h) of 12 nM, an IC50 ([3]; Homo sapiens, 72 h) of 13.6 nM and an IC50 (IGR37 cells (parental) [5]; Homo sapiens, IGR-37, 72 h) of 8.2 nM. The IC50 ([6]; Homo sapiens, 72 h) was 10.2 nM, the IC50 ([7]; Homo sapiens, 72 h) was 11 nM and the IC50 ([9]; Homo sapiens, 72 h) was 11 nM.

In the case of `CCS(=O)(=O)Nc1ccc2c(c1)/C(=C(/Nc1ccc(CN3CCCCC3)cc1)c1ccccc1)C(=O)N2` [Hesperadin, reference compound], the “cell viability (kinase inhibitor library screening)” value ([12]; 1μΜ) is reported as 52.6%, the “cell viability (kinase inhibitor library screening)” value ([12]; 10μΜ) is reported as 12.7% and the “cell viability (kinase inhibitor library screening)” value ([13]; 1μΜ) is reported as 35.1%. For the same molecule, the “cell viability (kinase inhibitor library screening)” value ([13]; 10μΜ) was 2.0%, the “cell viability (kinase inhibitor library screening)” value (IGR37 cells (parental) [14]; 1μΜ) was 56.8% and the “cell viability (kinase inhibitor library screening)” value (IGR37 cells (parental) [14]; 10μΜ) was 48.6%. For the same molecule, the “cell viability (kinase inhibitor library screening)” value ([15]; 1μΜ) was 70.7%, the “cell viability (kinase inhibitor library screening)” value ([15]; 10μΜ) was 3.6% and the “cell viability (kinase inhibitor library screening)” value ([16]; 1μΜ) was 81.7%. The “cell viability (kinase inhibitor library screening)” value ([16]; 10μΜ) was 46.9%, the “cell viability (kinase inhibitor library screening)” value (A375 cells (parental) [17]; 10μΜ) was 1.9% and the “cell viability (kinase inhibitor library screening)” value (A375 cells (parental) [17]; 1μΜ) was 7.5%. For the same molecule, the “cell viability (kinase inhibitor library screening)” value ([18]; 1μΜ) was 13.0%, the “cell viability (kinase inhibitor library screening)” value ([18]; 10μΜ) was 9.9% and the “cell viability (kinase inhibitor library screening)” value (501Mel cells (parental) [19]; 1μΜ) was 45.1%. For the same molecule, the “cell viability (kinase inhibitor library screening)” value (501Mel cells (parental) [19]; 10μΜ) was 33.5%, the “cell viability (kinase inhibitor library screening)” value ([20]; 1μΜ) was 13.3% and the “cell viability (kinase inhibitor library screening)” value ([20]; 10μΜ) was 3.7%. For the same molecule, the IC50 ([3]; Homo sapiens, 72 h) was 1040 nM, the IC50 (IGR37 cells (parental) [5]; Homo sapiens, IGR-37, 72 h) was 339 nM and the IC50 ([6]; Homo sapiens, 72 h) was 770 nM.
